According to patent US6355799B1, “Substituted benzene compounds, process for their preparation, and herbicidal and defoliant compositions containing them” (ISK Americas Incorporated, priority 1997, dated 2002):

Key:
Format in all cases: in vivo
[1] = tested on: redroot pigweed (Amaranthus retroflexus, AMARE); assay: Pre-emerge test, greenhouse herbicide activity screening; details: pre-emerge, rated 14 days after application, 0 = no damage, 100 = complete death
Method in brief: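 Sandy loam pots; pre-emerge: sown 1 d pre-spray, surface-watered after, then bottom-watered. Post-emerge: sown 8–21 d before, 2–3 leaf stage, + 0.25% v/v NIS, bottom-watered. Acetone, 187 l/ha track spray, 15–1000 g ai/ha. 0–100 injury score, day 14.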

[2] = tested on: barnyardgrass (Echinochloa crus-galli, ECHCG); assay: as above; details: pre-emerge, rated 14 days after application, 0 = no damage, 100 = complete death
Method in brief: (§1)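 Compounds in acetone were track-sprayed at 15–1000 g ai/ha: pre-emergence onto soil sown the previous day, then top-watered to incorporate and later bottom-watered; post-emergence onto 2–3 leaf plants with 0.25% v/v surfactant, bottom-watered only. Ratings on a 0–100 phytotoxicity scale were taken at day 14.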

[3] = tested on: green foxtail (Setaria viridis, SETVI); assay: as above; details: pre-emerge, rated 14 days after application, 0 = no damage, 100 = complete death
Method in brief: as §1

[4] = tested on: ivyleaf morningglory (Ipomoea hederacea, IPOHE); assay: as above; details: pre-emerge, rated 14 days after application, 0 = no damage, 100 = complete death
Method in brief: as §1

[5] = tested on: johnsongrass (Sorghum halepense, SORHA); assay: as above; details: pre-emerge, rated 14 days after application, 0 = no damage, 100 = complete death
Method in brief: as §1

[6] = tested on: lambsquarters (Chenopodium album, CHEAL); assay: as above; details: pre-emerge, rated 14 days after application, 0 = no damage, 100 = complete death
Method in brief: as §1

[7] = tested on: large crabgrass (Digitaria sanguinalis, DIGSA); assay: as above; details: pre-emerge, rated 14 days after application, 0 = no damage, 100 = complete death
Method in brief: as §1

[8] = tested on: sicklepod (Cassia obtusifolia, CASOB); assay: as above; details: pre-emerge, rated 14 days after application, 0 = no damage, 100 = complete death
Method in brief: as §1

[9] = tested on: velvetleaf (Abutilon theophrasti, ABUTH); assay: as above; details: pre-emerge, rated 14 days after application, 0 = no damage, 100 = complete death
Method in brief: as §1

[10] = tested on: field corn (Zea mays L., var. Dekalb 535, CORN); assay: Pre-emerge test, crop safety; details: pre-emerge, rated 14 days after application, 0 = no damage, 100 = complete death
Method in brief: (§2)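 Visual ratings on a 0-100 scale (0 no damage, 100 all plants dead) were taken at 14 days after treatment. Rates of 15-1000 g ai/ha in acetone, 187 l/ha, were sprayed onto soil one day after planting (pre-emerge) or onto 2-3 leaf plants with 0.25% v/v surfactant (post-emerge).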

[11] = tested on: upland rice (Oryza sp., var. Tebonnet, RICE); assay: Pre-emerge test, crop safety; details: pre-emerge, rated 14 days after application, 0 = no damage, 100 = complete death
Method in brief: as §2

[12] = tested on: barnyardgrass (Echinochloa crus-galli, ECHCG); assay: Post-emerge test, greenhouse herbicide activity screening; details: phytotoxicity rating 0-100 (0 no damage, 100 complete death), 14 days after application
Method in brief: (§3)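 Herbicidal damage is scored 0 (none) to 100 (complete plant death) two weeks after a simulated field spray. Rates span 15–1000 g ai/ha, delivered in acetone at 187 l/ha. For post-emergence treatments, plants have 2–3 leaves and the spray carries 0.25% v/v non-ionic surfactant.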

[13] = tested on: green foxtail (Setaria viridis, SETVI); assay: as above; details: phytotoxicity rating 0-100 (0 no damage, 100 complete death), 14 days after application
Method in brief: as §3

[14] = tested on: ivyleaf morningglory (Ipomoea hederacea, IPOHE); assay: as above; details: phytotoxicity rating 0-100 (0 no damage, 100 complete death), 14 days after application
Method in brief: as §3

[15] = tested on: johnsongrass (Sorghum halepense, SORHA); assay: as above; details: phytotoxicity rating 0-100 (0 no damage, 100 complete death), 14 days after application
Method in brief: as §3

[16] = tested on: lambsquarters (Chenopodium album, CHEAL); assay: as above; details: phytotoxicity rating 0-100 (0 no damage, 100 complete death), 14 days after application
Method in brief: as §3

[17] = tested on: large crabgrass (Digitaria sanguinalis, DIGSA); assay: as above; details: phytotoxicity rating 0-100 (0 no damage, 100 complete death), 14 days after application
Method in brief: as §3

[18] = tested on: redroot pigweed (Amaranthus retroflexus, AMARE); assay: as above; details: phytotoxicity rating 0-100 (0 no damage, 100 complete death), 14 days after application
Method in brief: as §3

[19] = tested on: sicklepod (Cassia obtusifolia, CASOB); assay: as above; details: phytotoxicity rating 0-100 (0 no damage, 100 complete death), 14 days after application
Method in brief: as §3

[20] = tested on: velvetleaf (Abutilon theophrasti, ABUTH); assay: as above; details: phytotoxicity rating 0-100 (0 no damage, 100 complete death), 14 days after application
Method in brief: as §3

[21] = tested on: field corn (Zea mays L., var. Dekalb 535, CORN); assay: Post-emerge test, crop safety; details: phytotoxicity rating 0-100 (0 no damage, 100 complete death), 14 days after application
Method in brief: (§4)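 Rating: 0–100 visual injury, 14 DAA. Application: acetone, 187 l/ha, 15–1000 g ai/ha, flat-fan track sprayer with nozzle 40–45 cm above soil or canopy. Post-emerge runs used 0.25% v/v surfactant on 2–3 leaf plants.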

[22] = tested on: upland rice (Oryza sp., var. Tebonnet, RICE); assay: Post-emerge test, crop safety; details: phytotoxicity rating 0-100 (0 no damage, 100 complete death), 14 days after application
Method in brief: as §4

COc1c(Cl)cc(F)c(-n2c(=O)cc(C(F)(F)F)n(C)c2=O)c1NC(=O)C(C)(C)C [2-3]
Pre-emerge Herbicidal Activity AMARE (phytotoxicity rating, scale 0-100) ([1]; 63 g ai/ha): 100 | Pre-emerge Herbicidal Activity AMARE (phytotoxicity rating, scale 0-100) ([1]; 250 g ai/ha): 100 | Pre-emerge Herbicidal Activity ECHCG (phytotoxicity rating, scale 0-100) ([2]; 63 g ai/ha): 0 | Pre-emerge Herbicidal Activity ECHCG (phytotoxicity rating, scale 0-100) ([2]; 250 g ai/ha): 40 | Pre-emerge Herbicidal Activity SETVI (phytotoxicity rating, scale 0-100) ([3]; 63 g ai/ha): 90 | Pre-emerge Herbicidal Activity SETVI (phytotoxicity rating, scale 0-100) ([3]; 250 g ai/ha): 100 | Pre-emerge Herbicidal Activity IPOHE (phytotoxicity rating, scale 0-100) ([4]; 63 g ai/ha): 60 | Pre-emerge Herbicidal Activity IPOHE (phytotoxicity rating, scale 0-100) ([4]; 250 g ai/ha): 100 | Pre-emerge Herbicidal Activity SORHA (phytotoxicity rating, scale 0-100) ([5]; 63 g ai/ha): 10 | Pre-emerge Herbicidal Activity SORHA (phytotoxicity rating, scale 0-100) ([5]; 250 g ai/ha): 30 | Pre-emerge Herbicidal Activity CHEAL (phytotoxicity rating, scale 0-100) ([6]; 63 g ai/ha): 100 | Pre-emerge Herbicidal Activity CHEAL (phytotoxicity rating, scale 0-100) ([6]; 250 g ai/ha): 100 | Pre-emerge Herbicidal Activity DIGSA (phytotoxicity rating, scale 0-100) ([7]; 63 g ai/ha): 30 | Pre-emerge Herbicidal Activity DIGSA (phytotoxicity rating, scale 0-100) ([7]; 250 g ai/ha): 60 | Pre-emerge Herbicidal Activity CASOB (phytotoxicity rating, scale 0-100) ([8]; 63 g ai/ha): 60 | Pre-emerge Herbicidal Activity CASOB (phytotoxicity rating, scale 0-100) ([8]; 250 g ai/ha): 100 | Pre-emerge Herbicidal Activity ABUTH (phytotoxicity rating, scale 0-100) ([9]; 63 g ai/ha): 100 | Pre-emerge Herbicidal Activity ABUTH (phytotoxicity rating, scale 0-100) ([9]; 250 g ai/ha): 100 | Pre-emerge crop damage CORN (phytotoxicity rating, scale 0-100) ([10]; 63 g ai/ha): 0 | Pre-emerge crop damage CORN (phytotoxicity rating, scale 0-100) ([10]; 250 g ai/ha): 30 | Pre-emerge crop damage RICE (phytotoxicity rating, scale 0-100) ([11]; 63 g ai/ha): 20 | Pre-emerge crop damage RICE (phytotoxicity rating, scale 0-100) ([11]; 250 g ai/ha): 50 | Post-emerge Herbicidal Activity ECHCG ([12]; 63 g ai/ha): 0 | Post-emerge Herbicidal Activity ECHCG ([12]; 250 g ai/ha): 0 | Post-emerge Herbicidal Activity SETVI ([13]; 63 g ai/ha): 0 | Post-emerge Herbicidal Activity SETVI ([13]; 250 g ai/ha): 0 | Post-emerge Herbicidal Activity IPOHE ([14]; 63 g ai/ha): 60 | Post-emerge Herbicidal Activity IPOHE ([14]; 250 g ai/ha): 100 | Post-emerge Herbicidal Activity SORHA ([15]; 63 g ai/ha): 0 | Post-emerge Herbicidal Activity SORHA ([15]; 250 g ai/ha): 0 | Post-emerge Herbicidal Activity CHEAL ([16]; 63 g ai/ha): 30 | Post-emerge Herbicidal Activity CHEAL ([16]; 250 g ai/ha): 30 | Post-emerge Herbicidal Activity DIGSA ([17]; 63 g ai/ha): 0 | Post-emerge Herbicidal Activity DIGSA ([17]; 250 g ai/ha): 0 | Post-emerge Herbicidal Activity AMARE ([18]; 63 g ai/ha): 10 | Post-emerge Herbicidal Activity AMARE ([18]; 250 g ai/ha): 40 | Post-emerge Herbicidal Activity CASOB ([19]; 63 g ai/ha): 0 | Post-emerge Herbicidal Activity CASOB ([19]; 250 g ai/ha): 0 | Post-emerge Herbicidal Activity ABUTH ([20]; 63 g ai/ha): 80 | Post-emerge Herbicidal Activity ABUTH ([20]; 250 g ai/ha): 100 | Post-emerge Herbicidal Activity CORN (crop damage) ([21]; 63 g ai/ha): 0 | Post-emerge Herbicidal Activity CORN (crop damage) ([21]; 250 g ai/ha): 10 | Post-emerge Herbicidal Activity RICE (crop damage) ([22]; 63 g ai/ha): 0 | Post-emerge Herbicidal Activity RICE (crop damage) ([22]; 250 g ai/ha): 40
